Assay results taken from US8715681B2, “Minimal motifs of linear B-cell epitopes in L1 protein from human papillomavirus type 58 and their applications” (Hengsun Pharmaceutical Technology Co. Ltd., priority 2012, dated 2014).
Ends that are not written are not given here.

Tested on: rabbit serum raised against r-L1C
Assay: Epitope mapping of 18-mer peptide-GST188 fusion proteins by Western blotting with anti-r-L1C rabbit serum
Format: binding
Settings: 18-mer peptides P25-P60 fused with GST188
Text: 1. The clone of HPV 58 genome was purchased from commercial resource (20). With regular PCR method, the N terminal and C terminal of full-length HPV58-L1 cDNA were amplified from the HPV 58 genome we purchased and then were reconstructed into pRSET-C fusion expression plasmid. The expressed r-L1N^36-233 and r-L1C^226-524 proteins were purified from E. coli, and finally used as antigen to immunize three New Zealand white rabbits to prepare rabbit antisera against r-L1N^36-233 or r-L1C^226-524, respectively.
2. Previously we have constructed a fusion expression plasmid pXXGST-1 specially used for 8/18-mer short peptide biosynthesis in epitope mapping. In this plasmid, the macromolecule protein carrier was a truncated glutathione S-transferases (GST) with 188 residues (GST188) (China Patent NO.: 200710173305.2; 18). DNA recombinant technology was employed to express two sets of 18-mer peptides overlapping each other by 10 residues covering the domains of L1N^36-233 and L1C^226-524 fused with GST188, respectively. Specifically the DNA fragments encoding different short peptide were inserted into pXXGST-1 plasmid after annealing of chemically synthesized plus and minus DNA strands to double-strand DNA. […]

P27: biosynthetic 18-mer peptide of HPV58 L1 fused with GST188; contains DVPID (NKSDVPIDICNSTCKYPD; not fully specified (N-terminus); cysteine pairing not given here)
reactivity in Western blotting: reactive
